In patent US12227522B2, “Synthesis of structural analogs of largazole and associated compounds” (COLORADO STATE UNIVERSITY RESEARCH FOUNDATION, priority 2020, dated 2025):

What was measured:
Format in all cases: biochemical
HDAC 1 = HDAC 1 (Homo sapiens, UniProt Q13547); assay: in vitro HDAC inhibition, HDAC isoform 1; conditions: Class 1, in vitro; read-out: HDAC inhibition as IC50, HDAC Isoform 1
HDAC 2 = HDAC 2 (Homo sapiens, UniProt Q92769); assay: in vitro HDAC inhibition, HDAC isoform 2; conditions: Class 1, in vitro; read-out: HDAC inhibition as IC50, HDAC Isoform 2
HDAC 3 = HDAC 3 (Homo sapiens, UniProt O15379); assay: in vitro HDAC inhibition, HDAC isoform 3; conditions: Class 1, in vitro; read-out: HDAC inhibition as IC50, HDAC Isoform 3
HDAC 8 = target: T1, HDAC 8 (Homo sapiens, UniProt Q9BY41); assay: in vitro HDAC inhibition, HDAC isoform 8; conditions: Class 1, in vitro; read-out: HDAC inhibition as IC50, HDAC Isoform 8
T1 sequence (Q9BY41 1-377): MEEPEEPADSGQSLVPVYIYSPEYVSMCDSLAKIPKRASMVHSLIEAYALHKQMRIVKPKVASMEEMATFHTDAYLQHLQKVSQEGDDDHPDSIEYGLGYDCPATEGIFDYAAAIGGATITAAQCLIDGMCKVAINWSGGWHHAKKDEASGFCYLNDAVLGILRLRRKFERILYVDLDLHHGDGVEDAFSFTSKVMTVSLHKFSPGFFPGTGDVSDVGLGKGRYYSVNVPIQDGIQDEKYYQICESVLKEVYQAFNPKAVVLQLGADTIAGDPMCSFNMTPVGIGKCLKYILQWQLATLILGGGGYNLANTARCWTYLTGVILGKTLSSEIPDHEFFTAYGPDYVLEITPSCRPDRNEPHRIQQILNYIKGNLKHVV

HDAC 4 = HDAC 4 (Homo sapiens, UniProt P56524); assay: in vitro HDAC inhibition, HDAC isoform 4; conditions: Class 2a, read-out: HDAC inhibition as IC50, HDAC Isoform 4
HDAC 5 = HDAC 5 (Homo sapiens, UniProt Q9UQL6); assay: in vitro HDAC inhibition, HDAC isoform 5; conditions: Class 2a, read-out: HDAC inhibition as IC50, HDAC Isoform 5
HDAC 7 = target: T2, HDAC 7 (Homo sapiens, UniProt Q8WUI4); assay: in vitro HDAC inhibition, HDAC isoform 7; conditions: Class 2a, read-out: HDAC inhibition as IC50, HDAC Isoform 7
T2 sequence (Q8WUI4 1-952): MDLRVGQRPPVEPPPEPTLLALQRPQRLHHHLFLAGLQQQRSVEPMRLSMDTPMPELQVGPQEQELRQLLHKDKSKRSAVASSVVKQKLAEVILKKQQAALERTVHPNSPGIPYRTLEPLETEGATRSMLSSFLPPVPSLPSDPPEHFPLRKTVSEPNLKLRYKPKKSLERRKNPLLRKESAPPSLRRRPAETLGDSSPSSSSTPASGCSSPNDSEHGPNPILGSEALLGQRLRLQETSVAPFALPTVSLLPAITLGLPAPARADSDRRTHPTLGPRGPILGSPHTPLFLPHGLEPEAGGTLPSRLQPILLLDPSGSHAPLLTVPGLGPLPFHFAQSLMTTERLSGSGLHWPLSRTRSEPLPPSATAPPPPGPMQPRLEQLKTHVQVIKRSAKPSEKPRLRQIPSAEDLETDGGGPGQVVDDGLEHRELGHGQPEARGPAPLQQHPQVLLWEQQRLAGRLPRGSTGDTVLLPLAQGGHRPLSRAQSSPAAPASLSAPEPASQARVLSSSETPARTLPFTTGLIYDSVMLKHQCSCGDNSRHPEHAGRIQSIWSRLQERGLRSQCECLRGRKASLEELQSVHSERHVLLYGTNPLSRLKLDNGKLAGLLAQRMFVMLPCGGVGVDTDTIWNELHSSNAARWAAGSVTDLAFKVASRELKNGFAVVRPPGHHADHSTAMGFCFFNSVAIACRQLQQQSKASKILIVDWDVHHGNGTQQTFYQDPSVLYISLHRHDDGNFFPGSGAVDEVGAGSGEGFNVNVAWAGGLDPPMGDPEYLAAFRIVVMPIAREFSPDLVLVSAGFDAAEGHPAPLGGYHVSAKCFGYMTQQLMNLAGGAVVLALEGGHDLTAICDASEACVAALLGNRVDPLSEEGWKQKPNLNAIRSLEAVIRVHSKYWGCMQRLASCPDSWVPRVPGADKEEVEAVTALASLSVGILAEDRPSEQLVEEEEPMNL

HDAC 9 = HDAC 9 (Homo sapiens, UniProt Q9UKV0); assay: in vitro HDAC inhibition, HDAC isoform 9; conditions: Class 2a, read-out: HDAC inhibition as IC50, HDAC Isoform 9
HDAC 6 = target: T3, HDAC 6 (Homo sapiens, UniProt Q9UBN7); assay: in vitro HDAC inhibition, HDAC isoform 6; conditions: Class 2b, read-out: HDAC inhibition as IC50, HDAC Isoform 6
T3 sequence (Q9UBN7 1-1215): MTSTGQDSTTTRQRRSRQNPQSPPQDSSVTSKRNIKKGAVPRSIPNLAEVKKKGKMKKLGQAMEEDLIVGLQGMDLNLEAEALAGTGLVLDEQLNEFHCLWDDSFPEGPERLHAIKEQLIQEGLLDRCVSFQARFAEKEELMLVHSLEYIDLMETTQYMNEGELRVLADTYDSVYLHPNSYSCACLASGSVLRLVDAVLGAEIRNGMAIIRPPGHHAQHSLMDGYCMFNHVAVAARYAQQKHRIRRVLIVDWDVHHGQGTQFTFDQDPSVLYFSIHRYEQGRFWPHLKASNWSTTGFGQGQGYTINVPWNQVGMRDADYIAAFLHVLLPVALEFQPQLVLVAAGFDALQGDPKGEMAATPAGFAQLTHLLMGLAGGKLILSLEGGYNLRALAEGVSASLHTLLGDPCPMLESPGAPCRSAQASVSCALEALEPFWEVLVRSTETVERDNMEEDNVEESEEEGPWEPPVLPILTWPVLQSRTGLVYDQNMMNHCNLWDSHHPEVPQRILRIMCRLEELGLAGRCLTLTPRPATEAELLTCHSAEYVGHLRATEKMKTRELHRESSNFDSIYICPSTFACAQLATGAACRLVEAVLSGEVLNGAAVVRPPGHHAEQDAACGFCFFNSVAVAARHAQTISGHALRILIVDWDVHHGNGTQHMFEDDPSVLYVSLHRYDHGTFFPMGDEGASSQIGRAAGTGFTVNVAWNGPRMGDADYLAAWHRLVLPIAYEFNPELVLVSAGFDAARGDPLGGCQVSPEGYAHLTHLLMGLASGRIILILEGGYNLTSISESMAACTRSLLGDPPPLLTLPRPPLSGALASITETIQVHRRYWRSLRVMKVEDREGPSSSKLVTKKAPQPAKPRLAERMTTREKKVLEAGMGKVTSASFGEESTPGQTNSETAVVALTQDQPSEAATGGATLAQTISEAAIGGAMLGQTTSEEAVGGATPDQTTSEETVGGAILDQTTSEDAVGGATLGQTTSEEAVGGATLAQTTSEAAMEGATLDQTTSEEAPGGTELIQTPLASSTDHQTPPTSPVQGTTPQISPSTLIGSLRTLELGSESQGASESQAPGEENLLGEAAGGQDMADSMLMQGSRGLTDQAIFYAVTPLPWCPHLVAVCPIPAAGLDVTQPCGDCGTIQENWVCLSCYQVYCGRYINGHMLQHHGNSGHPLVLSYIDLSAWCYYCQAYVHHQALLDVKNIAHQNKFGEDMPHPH

HDAC 11 = target: T4, HDAC 11 (Homo sapiens, UniProt Q96DB2); assay: in vitro HDAC inhibition, HDAC isoform 11; conditions: Class 4, in vitro; read-out: HDAC inhibition as IC50, HDAC Isoform 11
T4 sequence (Q96DB2 1-347): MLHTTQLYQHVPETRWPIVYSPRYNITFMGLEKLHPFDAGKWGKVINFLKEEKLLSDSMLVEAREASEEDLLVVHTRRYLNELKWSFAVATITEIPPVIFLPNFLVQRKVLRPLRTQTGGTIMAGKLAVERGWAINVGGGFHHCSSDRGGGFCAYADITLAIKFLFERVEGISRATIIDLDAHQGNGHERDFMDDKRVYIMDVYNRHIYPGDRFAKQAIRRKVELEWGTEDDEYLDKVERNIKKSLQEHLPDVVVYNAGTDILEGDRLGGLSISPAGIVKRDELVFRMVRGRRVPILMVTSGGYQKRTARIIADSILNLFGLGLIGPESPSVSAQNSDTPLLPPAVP

HDAC 2, sequence (Q92769 whole entry, canonical isoform): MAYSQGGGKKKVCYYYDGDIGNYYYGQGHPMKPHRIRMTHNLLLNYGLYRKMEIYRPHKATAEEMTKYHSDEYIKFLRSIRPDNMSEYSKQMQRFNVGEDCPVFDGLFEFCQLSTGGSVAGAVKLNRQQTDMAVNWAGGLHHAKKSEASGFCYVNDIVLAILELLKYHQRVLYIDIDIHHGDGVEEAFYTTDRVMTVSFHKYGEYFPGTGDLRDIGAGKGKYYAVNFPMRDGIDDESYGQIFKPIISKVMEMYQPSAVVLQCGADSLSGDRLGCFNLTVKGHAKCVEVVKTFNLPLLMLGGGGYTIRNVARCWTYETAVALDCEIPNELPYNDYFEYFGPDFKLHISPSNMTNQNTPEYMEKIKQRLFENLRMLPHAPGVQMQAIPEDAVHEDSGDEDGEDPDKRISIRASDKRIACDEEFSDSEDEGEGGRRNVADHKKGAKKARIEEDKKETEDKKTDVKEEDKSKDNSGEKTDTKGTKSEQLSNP
HDAC 5, sequence (Q9UQL6 whole entry, canonical isoform): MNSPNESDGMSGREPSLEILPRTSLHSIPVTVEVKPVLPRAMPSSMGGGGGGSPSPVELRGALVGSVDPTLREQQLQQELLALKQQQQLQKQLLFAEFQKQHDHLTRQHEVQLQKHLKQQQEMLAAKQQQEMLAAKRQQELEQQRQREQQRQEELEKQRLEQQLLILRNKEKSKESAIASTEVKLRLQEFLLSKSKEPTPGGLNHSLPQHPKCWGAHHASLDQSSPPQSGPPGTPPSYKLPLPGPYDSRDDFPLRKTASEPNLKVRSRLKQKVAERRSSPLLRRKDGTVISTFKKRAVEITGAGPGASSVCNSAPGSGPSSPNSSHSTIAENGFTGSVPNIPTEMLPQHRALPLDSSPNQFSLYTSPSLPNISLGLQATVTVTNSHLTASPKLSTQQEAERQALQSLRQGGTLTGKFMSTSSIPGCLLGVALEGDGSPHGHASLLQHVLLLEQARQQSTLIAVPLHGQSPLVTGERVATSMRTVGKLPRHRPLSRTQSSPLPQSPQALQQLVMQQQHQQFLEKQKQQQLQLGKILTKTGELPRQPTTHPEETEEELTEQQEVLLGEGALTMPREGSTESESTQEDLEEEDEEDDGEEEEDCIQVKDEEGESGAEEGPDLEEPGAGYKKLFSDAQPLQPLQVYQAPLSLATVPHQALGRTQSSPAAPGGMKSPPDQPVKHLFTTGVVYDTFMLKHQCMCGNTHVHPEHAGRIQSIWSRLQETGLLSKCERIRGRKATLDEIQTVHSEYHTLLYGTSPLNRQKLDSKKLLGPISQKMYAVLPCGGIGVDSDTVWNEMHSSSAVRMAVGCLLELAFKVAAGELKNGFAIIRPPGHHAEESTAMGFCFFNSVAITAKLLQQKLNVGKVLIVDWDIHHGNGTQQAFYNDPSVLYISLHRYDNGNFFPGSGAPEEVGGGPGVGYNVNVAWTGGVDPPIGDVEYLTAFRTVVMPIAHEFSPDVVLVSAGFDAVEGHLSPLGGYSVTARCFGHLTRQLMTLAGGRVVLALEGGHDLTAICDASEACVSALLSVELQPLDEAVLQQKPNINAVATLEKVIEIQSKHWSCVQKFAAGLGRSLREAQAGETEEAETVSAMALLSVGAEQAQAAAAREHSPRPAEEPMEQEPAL
HDAC 1, sequence (Q13547 whole entry, canonical isoform): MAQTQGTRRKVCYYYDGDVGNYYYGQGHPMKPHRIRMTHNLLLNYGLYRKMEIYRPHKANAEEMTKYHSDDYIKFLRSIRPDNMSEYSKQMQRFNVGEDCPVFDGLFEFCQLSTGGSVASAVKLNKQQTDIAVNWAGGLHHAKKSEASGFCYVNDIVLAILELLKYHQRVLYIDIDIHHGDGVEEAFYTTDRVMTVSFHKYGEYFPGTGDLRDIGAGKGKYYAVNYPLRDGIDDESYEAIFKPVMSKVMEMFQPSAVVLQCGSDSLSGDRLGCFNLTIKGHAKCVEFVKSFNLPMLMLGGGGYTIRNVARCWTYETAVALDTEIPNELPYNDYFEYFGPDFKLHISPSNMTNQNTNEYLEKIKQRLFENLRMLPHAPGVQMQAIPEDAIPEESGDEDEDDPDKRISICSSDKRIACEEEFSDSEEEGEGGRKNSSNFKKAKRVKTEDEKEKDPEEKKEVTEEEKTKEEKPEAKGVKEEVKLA
HDAC 3, sequence (O15379 whole entry, canonical isoform): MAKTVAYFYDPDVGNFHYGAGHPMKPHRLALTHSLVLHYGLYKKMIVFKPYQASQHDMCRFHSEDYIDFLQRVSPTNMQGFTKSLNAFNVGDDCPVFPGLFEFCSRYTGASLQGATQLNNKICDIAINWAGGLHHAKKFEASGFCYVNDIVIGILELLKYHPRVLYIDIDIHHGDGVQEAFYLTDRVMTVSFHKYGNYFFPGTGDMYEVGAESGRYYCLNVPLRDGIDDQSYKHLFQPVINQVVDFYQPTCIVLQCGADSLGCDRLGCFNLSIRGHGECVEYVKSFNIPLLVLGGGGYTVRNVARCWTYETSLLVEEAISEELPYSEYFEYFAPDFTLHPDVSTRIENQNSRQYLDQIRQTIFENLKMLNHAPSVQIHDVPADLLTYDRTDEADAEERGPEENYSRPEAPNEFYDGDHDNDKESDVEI
HDAC 3, sequence (Q9Y618 395-489 partner limits assumed): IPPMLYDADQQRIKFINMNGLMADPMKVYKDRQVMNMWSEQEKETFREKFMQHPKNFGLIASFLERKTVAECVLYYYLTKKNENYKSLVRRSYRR
HDAC 9, sequence (Q9UKV0 whole entry, canonical isoform): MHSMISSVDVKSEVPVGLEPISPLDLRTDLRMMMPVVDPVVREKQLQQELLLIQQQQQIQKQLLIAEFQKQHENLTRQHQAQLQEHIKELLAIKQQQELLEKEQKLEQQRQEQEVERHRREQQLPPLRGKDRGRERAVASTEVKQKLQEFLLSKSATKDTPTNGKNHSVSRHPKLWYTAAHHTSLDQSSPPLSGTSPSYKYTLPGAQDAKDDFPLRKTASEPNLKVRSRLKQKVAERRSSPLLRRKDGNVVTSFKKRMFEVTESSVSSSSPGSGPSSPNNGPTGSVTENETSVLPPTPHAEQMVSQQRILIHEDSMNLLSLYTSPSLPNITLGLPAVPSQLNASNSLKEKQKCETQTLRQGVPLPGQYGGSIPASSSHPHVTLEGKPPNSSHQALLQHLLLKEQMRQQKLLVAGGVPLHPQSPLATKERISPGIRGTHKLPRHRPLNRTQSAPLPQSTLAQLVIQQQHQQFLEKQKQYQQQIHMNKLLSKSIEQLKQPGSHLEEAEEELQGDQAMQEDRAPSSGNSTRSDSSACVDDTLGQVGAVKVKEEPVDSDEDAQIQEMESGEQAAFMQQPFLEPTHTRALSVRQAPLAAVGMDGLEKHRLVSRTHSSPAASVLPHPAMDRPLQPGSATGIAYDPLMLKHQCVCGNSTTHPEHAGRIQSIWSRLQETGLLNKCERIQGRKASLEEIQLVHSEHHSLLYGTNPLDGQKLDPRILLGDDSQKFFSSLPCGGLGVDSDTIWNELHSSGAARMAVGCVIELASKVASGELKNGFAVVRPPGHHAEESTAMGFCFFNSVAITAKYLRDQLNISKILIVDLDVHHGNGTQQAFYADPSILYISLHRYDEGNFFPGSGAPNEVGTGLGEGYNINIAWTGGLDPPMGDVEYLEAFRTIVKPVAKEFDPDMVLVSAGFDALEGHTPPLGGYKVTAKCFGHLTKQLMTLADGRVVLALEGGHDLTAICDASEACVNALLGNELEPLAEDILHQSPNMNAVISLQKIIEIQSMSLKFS
HDAC 4, sequence (P56524 whole entry, canonical isoform): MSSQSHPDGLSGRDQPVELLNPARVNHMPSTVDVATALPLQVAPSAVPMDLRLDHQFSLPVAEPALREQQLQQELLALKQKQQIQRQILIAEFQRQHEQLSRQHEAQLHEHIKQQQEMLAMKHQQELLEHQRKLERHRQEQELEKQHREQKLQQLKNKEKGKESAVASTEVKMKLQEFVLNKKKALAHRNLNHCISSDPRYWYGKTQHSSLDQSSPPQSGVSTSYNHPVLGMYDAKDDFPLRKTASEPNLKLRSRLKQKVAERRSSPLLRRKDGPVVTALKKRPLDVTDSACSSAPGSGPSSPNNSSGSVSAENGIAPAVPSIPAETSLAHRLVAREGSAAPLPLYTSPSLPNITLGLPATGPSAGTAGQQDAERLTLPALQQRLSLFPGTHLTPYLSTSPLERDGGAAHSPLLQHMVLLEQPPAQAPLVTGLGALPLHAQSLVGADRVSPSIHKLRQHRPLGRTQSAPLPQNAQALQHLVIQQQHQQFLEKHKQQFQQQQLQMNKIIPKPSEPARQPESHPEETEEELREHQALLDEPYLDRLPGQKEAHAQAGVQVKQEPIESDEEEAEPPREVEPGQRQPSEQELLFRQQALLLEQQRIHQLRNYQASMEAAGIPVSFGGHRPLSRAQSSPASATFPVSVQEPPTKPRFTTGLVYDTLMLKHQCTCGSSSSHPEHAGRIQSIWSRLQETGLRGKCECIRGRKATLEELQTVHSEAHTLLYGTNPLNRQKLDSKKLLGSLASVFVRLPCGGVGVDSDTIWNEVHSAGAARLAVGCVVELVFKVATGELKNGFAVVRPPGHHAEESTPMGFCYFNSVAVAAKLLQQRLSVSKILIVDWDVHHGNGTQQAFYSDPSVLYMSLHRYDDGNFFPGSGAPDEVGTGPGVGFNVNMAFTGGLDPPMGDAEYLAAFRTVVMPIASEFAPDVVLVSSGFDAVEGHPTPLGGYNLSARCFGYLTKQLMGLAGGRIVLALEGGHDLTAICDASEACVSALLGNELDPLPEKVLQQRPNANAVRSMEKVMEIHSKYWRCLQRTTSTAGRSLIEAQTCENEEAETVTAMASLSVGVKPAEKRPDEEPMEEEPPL

IC50 (HDAC 1): > 10 mM
IC50 (HDAC 2): > 10 mM
IC50 (HDAC 3): > 10 mM
IC50 (HDAC 8): > 10 mM
IC50 (HDAC 4): > 10 mM
IC50 (HDAC 5): > 10 mM
IC50 (HDAC 7): > 10 mM
IC50 (HDAC 9): > 10 mM
IC50 (HDAC 6): > 10 mM
IC50 (HDAC 11): > 10 mM
SMILES: CC(C)[C@@H]1NC(=O)[C@]2(C)CSC(=N2)c2csc(n2)CNC(=O)C[C@@H](/C=C/CCO)NC1=O
